# Experimental data as given in US12637468B2, “Substituted [1,2,4]triazolo[4,3-b]pyridazines as GABAA receptor modulators” (SHANGHAI SIMR BIOTECHNOLOGY CO., LTD., priority 2019, dated 2026).
# Key:
# [1] = biological target: T1, α5-GABAA receptor (Homo sapiens, UniProt P18507+P31644); experiment: Cell-level screening: whole cell patch clamp, inverse agonist efficacy on α5-GABAA receptor expressed in HEK293; format: cell-based; conditions: drug 100 nM, GABA 0.05 μM, HEK293 expressing α5, β3 and γ2 subunits, clamped at −60 mV; read-out: Compound inverse agonist efficacy %
# T1 construct: expressed in transfected cells; host or cells: HEK293, monoclonal stably transfected line
# Procedure, shortened: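 Whole-cell patch clamp at −60 mV on HEK293 stably expressing α5β3γ2, pH 7.4 extracellular/CsCl internal solutions. Current evoked by 0.05 μM GABA, then compound in GABA solution; screening at 100 nM, dose-response 0.3–300 nM. Inverse agonist efficacy as % change of GABA current.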
# [2] = Thermodynamic solubility in simulated intestinal fluid (TS in FaSSIF); format: physicochemical; conditions: thermodynamic from solid, 37° C.
# Experimental: Simulated intestinal fluid FaSSIF: 54.76 mg of FaSSIF-V2 (Biorelevant, batch. V2FAS-0619-A, lot. V2FAS01) was weighed and added to 15 mL of a buffer solution. After dissolving, the solution was supplemented to 30 mL, and put at room temperature for 1 hour before use.
# Waters e2695 HPLC high performance liquid chromatography, Mettler XSE105 analytical balance.
# Firstly, a 10 mM stock solution was prepared with DMSO, and was diluted with a diluent (ACN: PB buffer 50:50) into 1 μM-200 μM as a standard solution.
# Thermodynamic solubility in intestinal fluid (TS in FaSSIF) was simulated. About 0.3 mg of each sample was weighed and added to 1.5 mL of FaSSIF solution, with two parts in parallel, shaken at 1000 rpm at 37° C. for 4 hours, filtered. 1 mL of an initial filtrate was discarded, and 400 μL of the subsequent filtrate was taken. The filtrate was detected by high performance liquid chromatograph (UV).
# T1 sequence (P31644 32-462): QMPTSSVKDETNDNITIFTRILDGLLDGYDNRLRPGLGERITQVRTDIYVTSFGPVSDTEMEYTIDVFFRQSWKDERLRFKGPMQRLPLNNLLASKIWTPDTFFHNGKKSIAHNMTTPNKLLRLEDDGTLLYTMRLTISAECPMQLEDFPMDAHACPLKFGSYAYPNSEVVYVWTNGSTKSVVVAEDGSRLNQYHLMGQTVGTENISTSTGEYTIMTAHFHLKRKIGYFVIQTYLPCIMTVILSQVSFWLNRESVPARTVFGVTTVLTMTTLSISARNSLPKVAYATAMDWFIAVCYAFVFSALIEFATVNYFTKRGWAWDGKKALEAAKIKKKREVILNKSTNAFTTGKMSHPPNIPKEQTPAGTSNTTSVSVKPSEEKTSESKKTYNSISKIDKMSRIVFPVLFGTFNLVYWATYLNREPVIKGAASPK
# T1 sequence (P28472 26-473 partner): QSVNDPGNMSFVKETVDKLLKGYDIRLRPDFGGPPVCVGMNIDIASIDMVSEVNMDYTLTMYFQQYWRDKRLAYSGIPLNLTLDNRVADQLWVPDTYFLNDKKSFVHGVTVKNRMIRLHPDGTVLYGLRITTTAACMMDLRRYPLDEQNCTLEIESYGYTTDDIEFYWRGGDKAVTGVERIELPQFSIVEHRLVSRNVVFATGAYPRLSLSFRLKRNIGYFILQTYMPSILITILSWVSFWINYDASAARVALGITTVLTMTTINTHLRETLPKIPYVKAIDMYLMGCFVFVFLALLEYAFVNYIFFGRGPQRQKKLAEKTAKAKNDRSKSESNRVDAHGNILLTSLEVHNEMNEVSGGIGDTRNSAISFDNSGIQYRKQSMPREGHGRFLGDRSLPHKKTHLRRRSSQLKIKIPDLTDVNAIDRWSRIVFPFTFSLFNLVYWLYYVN
# T1 sequence (P18507 40-467 isoform P18507-1 limits assumed): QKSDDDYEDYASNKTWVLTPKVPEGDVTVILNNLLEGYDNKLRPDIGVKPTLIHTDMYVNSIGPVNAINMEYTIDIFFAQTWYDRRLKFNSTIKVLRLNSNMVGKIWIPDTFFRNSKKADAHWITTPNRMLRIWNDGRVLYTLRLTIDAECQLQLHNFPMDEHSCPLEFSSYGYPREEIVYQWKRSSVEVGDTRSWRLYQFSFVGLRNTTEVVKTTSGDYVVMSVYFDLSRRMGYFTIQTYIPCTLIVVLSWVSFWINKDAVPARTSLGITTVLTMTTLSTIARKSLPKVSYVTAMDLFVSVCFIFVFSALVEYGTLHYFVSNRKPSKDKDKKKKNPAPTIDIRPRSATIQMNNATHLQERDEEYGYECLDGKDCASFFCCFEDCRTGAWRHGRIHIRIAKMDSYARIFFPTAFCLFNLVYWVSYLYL
SMILES,inhibition at 0.1 µM [1] [%],solubility thermodynamic at 4 h [2] [µg/mL]
COCCN1CCc2nc(COc3nn4c(-c5cc(C)on5)nnc4cc3OC)ccc2C1 [Embodiment 80],47.2,195
"COc1cc2nnc(-c3cc(C)on3)n2nc1OCc1ncnn1C [Embodiment 1, 3-(7-Methoxy-6-((1-methyl-1H-1,2,4-triazol-5-yl)methoxy)-[1,2,4]triazolo[4,3-b]pyridazin-3-yl)-5-methylisoxazole]",41.9,146
COCCOc1cnc(COc2nn3c(-c4cc(C)on4)nnc3cc2OC)cn1 [Embodiment 85],57.3,53.9
COCCCN1CCc2nc(COc3nn4c(-c5cc(C)on5)nnc4cc3OC)ccc2C1=O [Embodiment 107],39.3,212
COCCn1cccc(COc2nn3c(-c4cc(C)on4)nnc3cc2OC)c1=O [Embodiment 75],44.3,52.4
COc1cc2nnc(-c3cc(C)on3)n2nc1OCc1cccc(C2CCCNC2)n1 (stereo not shown) [Embodiment 103],43.9,322
COCCCOc1ccnc(COc2nn3c(-c4cc(C)on4)nnc3cc2OC)c1 [Embodiment 55],25.1,38
COc1cc2nnc(-c3cc(C)on3)n2nc1OCc1ccc(OCC2CCOC2)nn1 (stereo not shown) [Embodiment 162],36.6,237
CCN1CCC(c2cccc(COc3nn4c(-c5cc(C)on5)nnc4cc3OC)n2)CC1 [Embodiment 167],42.5,408
COc1cc2nnc(-c3cc(C)on3)n2nc1OCc1ccc2c(n1)CCNC2 [Embodiment 78],43.4,255
COc1cc2nnc(-c3cc(C)on3)n2nc1OCc1cnnn1C [Embodiment 158],53.1,38.2
CCN1CC(F)(c2ccc(COc3nn4c(-c5cc(C)on5)nnc4cc3OC)nc2)C1 [Embodiment 127],41.8,223
COc1cc2nnc(-c3cc(C)on3)n2nc1OCc1ccc2c(n1)CCN(C(=O)N(C)C)C2 [Embodiment 203],63.6,264
COCCN1Cc2nc(COc3nn4c(-c5cc(C)on5)nnc4cc3OC)ccc2C1=O [Embodiment 66],62,146
COc1cc2nnc(-c3cc(C)on3)n2nc1OCc1ccn2c(C3CCOCC3)nnc2n1 [Embodiment 217],45.6,57.6
CCNCc1ccc(COc2nn3c(-c4cc(C)on4)nnc3cc2OC)nc1 [Embodiment 21],36.3,519
"COc1cc2nnc(-c3cc(C)on3)n2nc1OCc1ccccn1 [Embodiment 33, 3-(7-Methoxy-6-(pyridinyl-2-methoxy)-[1,2,4]-triazolo[4,3-b]pyridazin-3-yl)-5-methylisoxazole]",40.4,32.3
CCOCCCOc1ccc(COc2nn3c(-c4cc(C)on4)nnc3cc2OC)nn1 [Embodiment 168],37.5,59.9
"COc1ccc(COc2nn3c(-c4cc(CO)on4)nnc3cc2OC)nc1 [Embodiment 47, (3-(7-Methoxy-6-((5-methoxypyridin-2-yl)methoxy)-[1,2,4]triazolo[4,3-b]pyridazine-3-yl)isoxazol-5-yl)methanol]",45.2,40.4
COc1cc2nnc(-c3cc(C)on3)n2nc1OCc1ccc2c(n1)CCN(C(=O)NCC(F)(F)F)C2 [Embodiment 208],52.2,34
COc1cc2nnc(-c3cc(C)on3)n2nc1OCc1cc(OC2COC2)cnn1 [Embodiment 180],65.4,146
COc1cc2nnc(-c3cc(C)on3)n2nc1OCc1ccc2c(cnn2C2CN(C)C2)n1 [Embodiment 234],53.2,266
COc1cnnc(COc2nn3c(-c4cc(C)on4)nnc3cc2OC)c1 [Embodiment 49],37.2,143
COc1cc2nnc(-c3cc(C)on3)n2nc1OCc1ccc2c(n1)CN(C(C)C)C2 [Embodiment 102],47.3,30.8
COCCN1CCc2nc(COc3nn4c(-c5cc(C)on5)nnc4cc3OC)ccc2C1=O [Embodiment 110],58.6,46.6
COc1cc2nnc(-c3cc(C)on3)n2nc1OCc1ccc(OCCN2CCN(C)CC2)nn1 [Embodiment 163],45.2,179

SMILES,inhibition at 0.1 µM [1] [%],solubility thermodynamic at 4 h [2] [µg/mL]
COc1cc2nnc(-c3cc(C)on3)n2nc1OCc1ccncn1 [Embodiment 31],34.1,43.8
"COCc1cc(-c2nnc3cc(OC)c(OCc4ccccn4)nn23)no1 [Embodiment 28, 3-(7-Methoxy-6-(pyridin-2-ylmethoxy)-[1,2,4]triazolo[4,3-b]pyridazin-3-yl)-5-(methoxymethyl)isoxazole]",35.4,55.2
COc1cc2nnc(-c3cc(C)on3)n2nc1OCc1ccc2c(cnn2C2CCOC2)n1 (stereo not shown) [Embodiment 232],53.4,59
COc1cc2nnc(-c3cc(C)on3)n2nc1OCc1ccc(CN2CCC2)cn1 [Embodiment 169],40.7,306
COCc1cccc(COc2nn3c(-c4cc(C)on4)nnc3cc2OC)n1 [Embodiment 50],38.8,83
COc1cc2nnc(-c3cc(C)on3)n2nc1OCc1ccc2c(n1)CCN(C(C)=O)C2 [Embodiment 115],32.9,137
COc1cc2nnc(-c3cc(C)on3)n2nc1OCc1ccc2c(n1)CCN(C1CN(C(=O)C3CC3)C1)C2 [Embodiment 198],55.9,204
COc1cc2nnc(-c3cc(C)on3)n2nc1OCc1ccc2c(n1)CCN(C1COC1)C2=O [Embodiment 141],40.6,63.9
COc1cc2nnc(-c3cc(C)on3)n2nc1OCc1cccc(C2CCCN(C3COC3)C2)n1 (stereo not shown) [Embodiment 122],31.9,48.4
COCCCC(=O)N1CCc2nc(COc3nn4c(-c5cc(C)on5)nnc4cc3OC)ccc2C1 [Embodiment 112],52.4,318
COc1cc2nnc(-c3cc(C)on3)n2nc1OCc1ccc2c(n1)CCN(CC1(C)COC1)C2 [Embodiment 200],37.4,228
COc1cc2nnc(-c3cc(C)on3)n2nc1OCc1ccc2c(n1)CCN(CCC#N)C2 [Embodiment 90],64.9,84.9
COc1cc2nnc(-c3cc(C)on3)n2nc1OCc1ccc2c(n1)CCN(C(=O)N1CCOCC1)C2 [Embodiment 202],57.4,32.6
COc1cc2nnc(-c3cc(C)on3)n2nc1OCc1ccc2ncn(C3CCOCC3)c2n1 [Embodiment 247],60.4,32.7
COc1cc2nnc(-c3cc(C)on3)n2nc1OCc1cnccn1 [Embodiment 19],35.4,49.2
COc1cc2nnc(-c3cc(C)on3)n2nc1OCc1ccc2c(n1)CCN(CC(=O)N(C)C)C2 [Embodiment 193],32.6,200
COCCn1cc2nc(COc3nn4c(-c5cc(C)on5)nnc4cc3OC)ccc2n1 [Embodiment 240],,43.5
COc1cc2nnc(-c3cc(C)on3)n2nc1OCc1ccnc2ccnn12 [Embodiment 65],55.4,
COc1cc2nnc(-c3cc(C)on3)n2nc1OCc1ccc2c(n1)CCN(c1cc(C)on1)C2 [Embodiment 191],44,
COc1cccnc1COc1nn2c(-c3cc(C)on3)nnc2cc1OC [Embodiment 52],38,
COc1cc2nnc(-c3cc(C)on3)n2nc1OCc1cc(C#N)ccn1 [Embodiment 29],66.9,
COc1cc2nnc(-c3cc(C)on3)n2nc1OCc1ccc(C2CCC2)cn1 [Embodiment 56],21.6,
COc1cc2nnc(-c3cc(C)on3)n2nc1OCc1ccc2nn(Cc3cc(C)on3)cc2n1 [Embodiment 225],74.4,
COc1cc2nnc(-c3cc(C)on3)n2nc1OCc1cc(OC2COC2)ccn1 [Embodiment 172],47.6,
"CCNC(=O)c1ccc(COc2nn3c(-c4cc(C)on4)nnc3cc2OCC)nc1 [Embodiment 12, 6-(((7-Ethoxy-3-(5-methylisoxazol-3-yl)-[1,2,4]triazolo[4,3-b]pyridazin-6-yl)oxy)methyl)-N-ethylnicotinamide]",29.6,
COc1cccc(COc2nn3c(-c4cc(C)on4)nnc3cc2OC)n1 [Embodiment 38],32,
